Measurements taken from publication PMC8162438, “Cancer cell-selective modulation of mitochondrial respiration and metabolism by potent organogold(III) dithiocarbamates” (Chemical Science, 2020).

What was measured:
[1] = test system: MDA-MB-231; assay: Apoptosis analysis, Annexin V-FITC/PI FACS; assay type: cell-based; conditions: MDA-MB-231, 10 μM, 4 h, extrapolated from Fig. 10B
Excerpt: (§1) Apoptosis is a common cell death pathway for chemotherapeutics which can be characterized by distinct morphological features and biochemical mechanisms.[88,89] Apoptosis occurs normally in healthy cells to maintain a healthy population of cells during aging or development of tissues. Some transition metal-based drugs can trigger apoptosis due to […] of p53 dependant pathway (a tumour suppressor gene).[90,91] Populations of apoptotic cells can be determined by containing cells with Annexin V and PI.[92,93] Cells undergoing apoptosis contain ample amount of phosphatidylserine (PS) which can be bound by Annexin V. The Annexin is then labelled with FITC, a green fluorogenic dye which can be visualized by fluorescence activated cell sorting (FACS). PI is used to stain damaged DNA to distinguish apoptotic from necrotic cells. […]
media. […] The plates were read using a Genios plate reader (λ = 570 nm). […]
Cell Viability of 1a-1e and 2a-2e (Suspended Cell Lines). The cell viability of 2a was determined in K562. […]
10% CO 2. […] To each designated well was then added 20 µL of CellTiter-Glo solution and orbitally shaken for 5 minutes and the luminescence (1000 ms integration and 150 ms gain) acquired on a Genios plate reader. […]

[2] = test system: MDA-MB-231; assay: Immunoblotting of apoptosis proteins; assay type: cell-based
Excerpt: as §1, with “(FACS).” for “(FACS). PI is used to stain damaged DNA to distinguish apoptotic from necrotic cells.”
positive control. When ready for analysis, the media were removed and the wells washed with 5 mL of PBS. […] The cells were resuspended in 2 mL of fresh media, counted, and reconstituted to a concentration of 1 x 10^5 cells/mL. […]
Compound 2a was prepared as a stock in DMSO and added to the respective wells at the specified concentrations of 0.1, 1, and 10 µM and treated for 12 h. […] The samples were cooled and stored at −20 °C until ready for use. […] Immuno complexes were detected with the ECL detection reagent (BioRad) and analyzed using a BioRad imager with a chemiluminescence filter. […]

C[N+](C)=C1[S][Au-2]2([S]1)[c]1ccccc1Cc1cccc[n+]12.F[P-](F)(F)(F)(F)F (stereo not drawn) [2a]
Increase in apoptotic cells in comparison to control [1]: 36%
Cleaved PARP expression (immunoblot) ([2]; MDA-MB-231, 0.1, 1, 10 µM, 12 h): unaltered protein expression
Caspase 3 and cleaved caspase 3 expression (immunoblot) ([2]; MDA-MB-231, concentration dependent (0.1, 1, 10 µM, 12 h)): upregulated
